{"source": "patent US20060111288A1", "about": "“Peripheral benzodiazepine receptor independent superoxide generation” (priority 2004, published 2006)", "key": {"HL60 leukaemia cells [1]": {"tested_on": "HL60 leukaemia cells", "test": "Mitochondrial membrane potential depolarisation (DiOC6(3) fluorescence, flow cytometry)", "format": "cell-based, human", "method": "(§1) HL60 promyelocytic leukaemia, Jurkat T cell leukaemia cells lacking the PBR,(18) (19) (kindly provided by Dr D. E. Banker and Dr F. Applebaum, The Fred Hutchinson Cancer Research Center, USA), and BV173 leukaemia cells were maintained in exponential suspension cultures in PPMI 1640 medium supplemented with 10% fetal calf serum, 5 mM glutamine, 100 μg/ml streptomycin and 100 U/ml penicillin. Cells were grown in a humidified atmosphere of 5% CO2/95% air at 37° C. PK11195 was dissolved in ethanol at a stock concentration of 8.7 mg/ml, and added to cells at a 75 μM final concentration for 4 hours; vehicle alone was also used in medium.\n(§2) A Becton Dickinson FACScan (Oxford) was used to acquire 10,000 events using forward and scatter detectors with logarithmic amplification. Lymphoid enriched gates were defined. Corresponding DiOC6(3) or CMH2DCFDA fluorescence was analysed using the FL1 (530 nm) band pass filter. Propidium iodide or ethidium fluorescence were analysed using the FL3 (620 nm) band pass filter. List mode Data was analysed using WINMDI 2.8. Fluorescence microscopy was performed using a Zeiss Axioskop four colour florescence microscope with digital capture via a computer running IPLab Spectrum software.\n(§3) Cells were incubated for 20 minutes at 37° C. in the dark with the cationic lipophillic (amphipathic) probe DiOC6(3) (80 nM), then counter stained for 10 minutes with propidium iodide (20 μg/ml). DiOC6(3) is sequestered within the mitochondrial matrix due to the inner membrane potential (ΔΨm), according to the Nernst equation, dissipation leading to a reduction in mitochondrial retention and decreased cellular DiOC6(3) fluorescence. Collapse of ΔΨm was prevented by incubating cells for 30 minutes with 50 μM bongkrekic acid. Events with increased propidium iodide fluorescence were subtracted, by gating, from the DiOC6(3) histograms to eliminate dead cells, with loss of plasma membrane integrity. Dose-response curves used the calculating the proportion of DiOC6(3) low cells as the dependent variable on the ordinate. To measure MPT directly, cells were incubated with 1 μM calcein AM for 30 minutes, followed by 1 mM […]. Cobalt quenches calcein fluorescence, but cannot traverse an intact inner mitochondrial membrane to enter the mitochondrial matrix, to which calcein equilibrates. Opening of the PTPC allows cobalt to enter, reducing calcein fluorescence."}, "DoHH2 cells": {"tested_on": "DoHH2 cells", "test": "Apoptosis induction in the presence and absence of the ROS scavenger MnTBAP", "format": "cell-based", "settings": "24, 48, 72 hr, 1000 micromolar MPTP, 100 micromolar PK11195, 50 micromolar HA14-1, FIG. 5", "method": "DoHH2 cells, a lymphoma cell line, were treated with MPTP, PK11195 and HA14-1 in the presence and absence of MnTBAP, a scavenger of ROS. […] MnTBAP inhibited MPTP-induced and PK11195-induced apoptosis, but not apoptosis induced by HA14-1. The three columns in each lane represent three time courses (L to R: 24 hr, 48 hr and 72 hr). […] The induction of apoptosis at the same time points as a result of treatment with 1000 micromolar MPTP is shown in lane “1000”.\nThe blockade of MPTP induction of apoptosis by MnTBAP parallels that of PK11195.\nDoHH2 cells, a lymphoma cell line with high levels of the […] protein Bcl-2 due to a translocation between chromosome 14 and 18 (where the Bcl-2 gene is located), were exposed to MPTP, PK11195 and HA 14-1 in the presence and absence of the mitochondrial ROS scavenger, MnTBAP."}, "leukaemia cells": {"tested_on": "leukaemia cells", "test": "Superoxide generation (dihydroethidium to ethidium fluorescence)", "format": "cell-based", "method": "as §2\n(§4) O2^−· was detected by incubating cells for 15 minutes in 5 μM dihydroethidium, which is oxidized to ethidium. To test the effect of O2^−· […] on O2^−· generation, cells were treated with 100 μM MnTBAP for 45 minutes. Hydrogen peroxide was detected by loading cells for 30 minutes with 5 μM CM-H2DCFDA, and its formation inhibited by preincubation with 500 U/ml catalase for 30 minutes (21). Dose-response curves for CM-H2DCFDA used the calculated proportion of CM-H2DCFDA high cells as the dependent variable."}, "HL60 leukaemia cells [2]": {"tested_on": "HL60 leukaemia cells", "test": "Direct measurement of MPT by calcein/cobalt quenching", "format": "cell-based, human", "settings": "calcein AM plus cobalt, FIG. 1D/1E", "method": "as §3"}, "[3]": {"tested_on": "peripheral benzodiazepine receptor (PBR)", "settings": "references 1, 2; cited from earlier work"}, "HL60 cells": {"tested_on": "HL60 cells", "test": "Hydrogen peroxide generation (CMH2DCF fluorescence)", "format": "cell-based, human", "method": "as §2, §4"}, "[4]": {"tested_on": "Jurkat T cell leukaemia cells", "test": "Hydrogen peroxide generation (CMH2DCF fluorescence) in PBR-negative cells", "format": "cell-based", "settings": "PBR not expressed, FIG. 3", "method": "as §1, with “medium. O2^−· was detected by incubating cells for 15 minutes in 5 μM dihydroethidium, which is oxidized to ethidium. […] Hydrogen peroxide was detected by loading cells for 30 minutes with 5 μM CM-H2DCFDA, and its formation inhibited by preincubation with 500 U/ml catalase for 30 minutes (21). Dose-response curves for CM-H2DCFDA used the calculated proportion of CM-H2DCFDA high cells as the dependent variable.” for “medium.”"}, "[5]": {"tested_on": "primary chronic lymphatic leukaemia cells", "test": "Apoptosis induction in primary leukaemia cells", "format": "cell-based", "settings": "primary chronic lymphatic leukaemia cells (higher NADPH oxidase than normal cells)"}, "BV173 leukaemia cells": {"tested_on": "BV173 leukaemia cells", "test": "Hydrogen peroxide generation (CMH2DCF fluorescence) in PBR-positive cells", "format": "cell-based", "settings": "PBR expressed, FIG. 3", "method": "as §1, with “medium. O2^−· was detected by incubating cells for 15 minutes in 5 μM dihydroethidium, which is oxidized to ethidium. […] Hydrogen peroxide was detected by loading cells for 30 minutes with 5 μM CM-H2DCFDA, and its formation inhibited by preincubation with 500 U/ml catalase for 30 minutes (21). Dose-response curves for CM-H2DCFDA used the calculated proportion of CM-H2DCFDA high cells as the dependent variable.” for “medium.”"}, "[6]": {"tested_on": "normal, non-malignant lymphocytes", "test": "Apoptosis induction in normal lymphocytes", "format": "cell-based"}}}
{"compound": "CO[C@H](C/C=C\\C=C\\CC/C=C/C[C@H](C)/C=C/C(=C\\C(=O)O)CC(=O)O)/C(C)=C\\C=C(/C)C(=O)O", "note": "[BA, Bongkrekic acid]", "values": [{"measurement": "effect of inhibitor on PK11195 mediated mitochondrial depolarisation", "setting": "HL60 leukaemia cells [1]; pre-treatment with 50 μM bongkrekic acid for 30 minutes, FIG. 1C", "value": "prevented"}]}
{"compound": "CCOC(=O)C1=C(N)Oc2ccc(Br)cc2C1C(C#N)C(=O)OCC", "note": "(centres unmarked) [HA14-1]", "values": [{"measurement": "effect of MnTBAP on apoptosis induced by the compound", "setting": "DoHH2 cells", "value": "not blocked"}]}
{"compound": "CN1CC=C(c2ccccc2)CC1", "note": "[MPTP, 1-methyl-4-phenyl-1,2,3,6-tefrahydropyridine]", "values": [{"measurement": "effect of MnTBAP on apoptosis induced by the compound", "setting": "DoHH2 cells", "value": "inhibited"}]}
{"compound": "O=C(O)c1ccc(C2=C3C=CC(=N3)C(c3ccc(C(=O)O)cc3)=c3ccc([nH]3)=C(c3ccc(C(=O)O)cc3)c3ccc([n-]3)C(c3ccc(C(=O)O)cc3)c3ccc2[n-]3)cc1.[Cl-].[Mn+3]", "note": "(centres unmarked) [MnTBAP, Manganese (III) tetrakis (4-benzoic acid) porphyrin chloride]", "values": [{"measurement": "effect on PK11195 induced increase in ethidium fluorescence", "setting": "leukaemia cells; 100 μM MnTBAP, FIG. 4B", "value": "inhibited"}, {"measurement": "effect on rate of PK11195 induced mitochondrial depolarisation (rate of reduction of DiOC6(3) fluorescence)", "setting": "HL60 leukaemia cells [1]; presence vs absence of MnTBAP, FIG. 4C", "value": "Reduction in the rate of inner mitochondrial membrane depolarisation"}]}
{"compound": "CCC(C)N(C)C(=O)c1cc2ccccc2c(-c2ccccc2Cl)n1", "note": "(centres unmarked) [PK11195, 1-(2-chlorophenyl)-N-methyl-N-methyl-N-(1-methylpropyl)-isoquinoline carboxamide]", "values": [{"measurement": "mitochondrial calcein fluorescence (MPT, open PTPCs)", "setting": "HL60 leukaemia cells [2]", "value": "quenched"}, {"measurement": "binding affinity to the PBR", "setting": "[3]", "value": "nanomolar"}, {"measurement": "concentration range in which CMH2DCF fluorescence increased", "setting": "HL60 cells; HL60 cells, concentration dependent, FIG. 2A", "value": "50 to 100", "unit": "µM"}, {"measurement": "effect of MnTBAP on apoptosis induced by the compound", "setting": "DoHH2 cells", "value": "inhibited"}, {"measurement": "CMH2DCF fluorescence (generation of H202)", "setting": "[4]", "value": "increase in CMH2DCF fluorescence"}, {"measurement": "induction of apoptosis", "setting": "[5]", "value": "induces apoptosis"}, {"measurement": "ethidium fluorescence (O2−· generation)", "setting": "leukaemia cells; following PK11195 treatment vs control, FIG. 4A", "value": "early increase in ethidium fluorescence"}, {"measurement": "CMH2DCF fluorescence (generation of H202)", "setting": "BV173 leukaemia cells", "value": "increase in CMH2DCF fluorescence"}, {"measurement": "time until reduction in DiOC6(3) fluorescence is detectable", "setting": "HL60 leukaemia cells [1]; PK11195 treated", "value": "≤ 3", "unit": "h"}, {"measurement": "DiOC6(3) fluorescence (collapse of mitochondrial ΔΨm)", "setting": "HL60 leukaemia cells [1]; PK11195 treated vs control, FIG. 1A/1B", "value": "reduction in DiOC6(3) fluorescence"}, {"measurement": "induction of apoptosis", "setting": "[6]", "value": "does not do so"}]}
{"compound": "catalase", "values": [{"measurement": "effect on PK11195 induced increase in CMH2DCF fluorescence", "setting": "HL60 cells; HL60 cells preincubated with catalase 500 U/ml, FIG. 2B", "value": "inhibited"}]}
